According to ChEMBL document CHEMBL3352587:
The source made the active and inactive calls. No cut-off for these calls is given here.

Test system: Trypanosoma cruzi
Assay: Inhibition of recombinant Trypanosoma cruzi trans-sialidase catalytic N-terminal domain preincubated at 1 mM for 10 mins by continuous fluorimetric assay

| SMILES | inhibition |
| --- | --- |
| COC(=O)c1ccc(O[C@@H]2O[C@H](CO)[C@H](O)[C@H](OCC(=O)O)[C@H]2O)cc1 | inactive |
| CCCCCCCCO[C@@H]1O[C@H](CO)[C@H](O)[C@H](OC)[C@H]1O | 13% |
| COC(=O)c1ccc(O[C@@H]2O[C@H](CO)[C@H](O)[C@H](OCc3nnn[nH]3)[C@H]2O)c([N+](=O)[O-])c1 | 18% |
| COC(=O)c1ccc(O[C@@H]2O[C@H](CO)[C@H](O)[C@H](O)[C@H]2O)cc1 | 11% |
| COC(=O)c1ccc(O[C@@H]2O[C@H](CO)[C@H](O)[C@H](OCC(=O)OC(C)(C)C)[C@H]2O)c([N+](=O)[O-])c1 | inactive |
| COC(=O)c1ccc(O[C@@H]2O[C@H](CO)[C@H](O)[C@H](OCc3nnn[nH]3)[C@H]2O)cc1 | inactive |
| COC(=O)c1ccc(O[C@@H]2O[C@H](CO)[C@H](O)[C@H](OCC#N)[C@H]2O)c([N+](=O)[O-])c1 | inactive |
| COC(=O)c1ccc(O[C@@H]2O[C@H](CO)[C@H](O)[C@H](OCC(=O)O)[C@H]2O)c([N+](=O)[O-])c1 | 21% |
| Cc1ncc(COP(=O)(O)O)c(C=O)c1O | 68% |
| COC(=O)c1ccc(O[C@@H]2O[C@H](CO)[C@H](O)[C@H](OC)[C@H]2O)c([N+](=O)[O-])c1 | 16% |
| COC(=O)c1ccc(O[C@@H]2O[C@H](CO)[C@H](O)[C@H](OCC#N)[C@H]2O)cc1 | 7% |
| COC(=O)c1ccc(O[C@@H]2O[C@H](CO)[C@H](O)[C@H](O)[C@H]2O)c([N+](=O)[O-])c1 | 16% |
| COC(=O)c1ccc(O[C@@H]2O[C@H](CO)[C@H](O)[C@H](OCC(=O)OC(C)(C)C)[C@H]2O)cc1 | inactive |
| COC(=O)c1ccc(O[C@@H]2O[C@H](CO)[C@H](O)[C@H](OC)[C@H]2O)cc1 | 7% |
